How the values were obtained:
Type in all cases: cell-based
GLUT8 = biological target: T1, GLUT8 (Homo sapiens, UniProt Q9NY64); assay: 2-DOG transport in HEK293 cells over-expressing GLUT8; details: pre-treated 5 minutes, 2-DOG uptake 4 min; cells lacking GLUT1; read-out: IC50 (inhibition of 2-DOG transport in HEK cells over-expressing GLUT isoforms) GLUT8
T1 construct: expressed in transfected cells; host or cells: HEK293 stably expressing GLUT1 shRNA
T1 sequence (Q9NY64 1-477): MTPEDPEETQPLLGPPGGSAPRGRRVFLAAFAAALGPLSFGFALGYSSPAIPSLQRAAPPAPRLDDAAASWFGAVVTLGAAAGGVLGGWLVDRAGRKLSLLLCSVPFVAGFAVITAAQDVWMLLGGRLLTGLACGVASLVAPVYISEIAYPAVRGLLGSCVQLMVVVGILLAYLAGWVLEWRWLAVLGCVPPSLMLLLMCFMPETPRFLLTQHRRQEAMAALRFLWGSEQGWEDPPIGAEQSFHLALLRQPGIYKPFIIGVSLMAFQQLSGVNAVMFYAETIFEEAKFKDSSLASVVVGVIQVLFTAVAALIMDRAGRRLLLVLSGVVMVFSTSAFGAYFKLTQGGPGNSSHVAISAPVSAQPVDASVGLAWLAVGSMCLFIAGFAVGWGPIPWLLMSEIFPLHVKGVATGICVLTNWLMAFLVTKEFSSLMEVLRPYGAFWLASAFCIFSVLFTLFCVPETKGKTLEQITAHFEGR
Description: (§1) Tissue culture plates were pretreated with 25 μg/ml polyethyleneimine (Fluka, catalogue number P3143) in 150 mM NaCl for 20min to let cells adhere. JNN3 cells were subsequently plated and grown to 40-60% confluency in complete RPMI 1640 medium. HEK293 GLUT overexpressing cells were plated at 400,000 cells/ml overnight. Cells were then washed with glucose-free HEPES buffer twice and starved for 30 min. The uptake of 2-[^3H] deoxy-D-glucose (2-DOG) (50 μM) was measured in glucose-free HEPES buffer for 4-6 min at 37° C. Compound 20 (20 μM) was added 5-6 min prior to the addition of glucose depending on the specific assay. For the HEK293 GLUT overexpressing cells, non-specific uptake was measured in non-transfected HEK293 cells containing the shRNA GLUT1 knockdown and was subtracted from the experimental values. Data are plotted as percent uptake relative to unexposed HEK293 cultures. Data were normalized to fit by nonlinear regression analysis using GraphPad Prism software.
(§2) Compound 20 was further screened for GLUT4 selectivity by evaluating inhibition of glucose transport in HEK 293 cells exogenously over-expressing human GLUTs-1, -2, -3, -4, or -8 that also stably express GLUT1 shRNA (except the GLUT1 overexpressing cell line) to knock down endogenous GLUT1.
(§3) Glucose transport in HEK293 cells over-expressing GLUT1 or over-expressing GLUT4 or GLUT8 in cells lacking GLUT1 were used to evaluate inhibition of glucose transport. Cells were pre-treated with compound for 5 minutes followed by evaluation of 22-DOG uptake for 4 min at 370 C. Non-specific uptake was measured in nontransfected HEK293 cells containing the shRNA GLUT1 knockdown and was subtracted from the experimental values.

GLUT4 = biological target: T2, GLUT4 (Homo sapiens, UniProt P14672); assay: 2-DOG transport in HEK293 cells over-expressing GLUT4; details: pre-treated 5 minutes, 2-DOG uptake 4 min; cells lacking GLUT1; read-out: IC50 (inhibition of 2-DOG transport in HEK cells over-expressing GLUT isoforms) GLUT4
T2 construct: expressed in transfected cells; host or cells: HEK293 stably expressing GLUT1 shRNA
T2 sequence (P14672 1-509): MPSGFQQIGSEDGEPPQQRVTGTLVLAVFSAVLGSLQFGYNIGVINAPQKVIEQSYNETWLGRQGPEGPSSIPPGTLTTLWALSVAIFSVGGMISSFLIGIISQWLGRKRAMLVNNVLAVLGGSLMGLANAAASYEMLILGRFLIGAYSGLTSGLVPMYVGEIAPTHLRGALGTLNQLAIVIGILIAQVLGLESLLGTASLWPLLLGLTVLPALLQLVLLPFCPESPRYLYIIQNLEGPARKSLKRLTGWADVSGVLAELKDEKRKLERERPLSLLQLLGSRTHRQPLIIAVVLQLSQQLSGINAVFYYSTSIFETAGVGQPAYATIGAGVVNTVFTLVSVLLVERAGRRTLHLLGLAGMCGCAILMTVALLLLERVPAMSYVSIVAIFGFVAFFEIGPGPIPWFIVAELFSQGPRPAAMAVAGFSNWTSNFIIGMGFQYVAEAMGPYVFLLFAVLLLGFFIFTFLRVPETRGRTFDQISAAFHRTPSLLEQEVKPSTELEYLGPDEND
Description: as §1, §2, §3

GLUT1 = biological target: T3, GLUT1 (Homo sapiens, UniProt P11166); assay: 2-DOG transport in HEK293 cells over-expressing GLUT1; details: pre-treated 5 minutes, 2-DOG uptake 4 min; read-out: IC50 (inhibition of 2-DOG transport in HEK cells over-expressing GLUT isoforms) GLUT1
T3 construct: expressed in transfected cells; host or cells: HEK293
T3 sequence (P11166 1-492): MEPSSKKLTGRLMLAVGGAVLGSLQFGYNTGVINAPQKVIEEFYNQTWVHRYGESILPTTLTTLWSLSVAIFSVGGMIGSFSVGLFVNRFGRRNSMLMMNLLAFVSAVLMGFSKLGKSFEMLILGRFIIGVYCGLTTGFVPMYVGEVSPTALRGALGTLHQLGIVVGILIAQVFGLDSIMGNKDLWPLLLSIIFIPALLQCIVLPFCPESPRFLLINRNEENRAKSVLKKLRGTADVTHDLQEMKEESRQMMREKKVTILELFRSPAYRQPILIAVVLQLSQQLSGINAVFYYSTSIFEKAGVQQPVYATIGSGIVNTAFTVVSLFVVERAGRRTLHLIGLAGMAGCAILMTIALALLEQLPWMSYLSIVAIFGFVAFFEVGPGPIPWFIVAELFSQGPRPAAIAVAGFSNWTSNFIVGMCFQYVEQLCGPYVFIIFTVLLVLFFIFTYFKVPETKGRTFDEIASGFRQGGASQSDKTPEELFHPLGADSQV
Description: as §1, with “software. […]” for “software.”
as §3, with “Cells were pre-treated with compound for 5 minutes followed by evaluation of 22-DOG uptake for 4 min at 370 C.” left out

KMS11-GFP cells = assay: Proliferation of KMS11-GFP myeloma cells (Cell Titre Glo); details: for EC50: inhibition of proliferation, 72 hours, Cell Titre Glo; for impact on proliferation in KMS11-GFP cells compared with KMS11-GLUT1 cells: isogenic cell line pair
Description: (§4) IC50 studies were performed using the CellTiter-Glo assay (Promega, Madison, Wis.). 20,000 cells in 100 ul complete RPMI 1640 medium were plated per well in 96-well plates, with a concentration range of individual compounds. After 72 h incubation, 100 uL Glo reagent were added to each well and luminescence was measured using a Biotek Synergy 4 multimode plate reader. Cell number was assessed by trypan blue standing and an automatic cell counter (Biorad). For cell viability assays 0.125×10^6 cells/mL were treated with the indicated concentration of drug, washed with 1×PBS and evaluated for viability by AnnexinV/DAPI staining and flow cytometry. Data analysis was per-formed with the FCS express version 3 (De Novo software, Los Angeles).
(§5) Compound were selected as a lead based on its low IC50, selectivity for inhibition of glucose transport through GLUT4, and inhibition of the KMS11-GFP cell line proliferation in contrast to the GLUT1 expressing isogenic line. Compounds were assessed in a high-throughput proliferation-based assay using an isogenic MM (KMS11) cell line pair overexpressing GLUT1 or GFP (as a control) (model of screen is depicted in FIG. 2A). […] Isogenic KMS11-GFP/GLUT1 overexpressing myeloma cell lines were treated with a dose range of the indicated test compound for 72 hours followed by evaluation of viable cell number by Cell Titre Glo assay

KMS11-GLUT1 cells = assay: Proliferation of KMS11-GLUT1 myeloma cells (Cell Titre Glo); details: inhibition of proliferation, 72 hours
Description: as §4, §5

Row | Compound | IC50 (GLUT8) [µM] | IC50 (GLUT4) [µM] | IC50 (GLUT1) [µM] | EC50 (KMS11-GFP cells) [µM] | EC50 (KMS11-GLUT1 cells) [µM] | impact on proliferation in KMS11-GFP cells compared with KMS11-GLUT1 cells (KMS11-GFP cells)
1 | COc1ccc(C(=O)N(Cc2ccncc2)Cc2cccc(OCCc3ccc(C)cc3)c2)cc1 [Compound 7, 4-Methoxy-N-(3-(4-methylphenethoxy)benzyl)-N-(pyridin-4-ylmethyl)benzamide] | – | – | – | 9.1 | 12.7 | –
2 | COc1ccc(C(=O)N(Cc2ccncc2)Cc2cccc(OCCc3cccc(C(F)(F)F)c3)c2)cc1 [Compound 8, 4-Methoxy-N-(pyridin-4-ylmethyl)-N-(3-(3-(trifluoromethyl)phenethoxy)benzyl)benzamide] | – | – | – | 8.9 | 15.1 | greater impact on proliferation in KMS11-GFP cells
3 | COc1ccc(C(=O)N(Cc2ccncc2)Cc2cccc(OCC3CCOCC3)c2)cc1 [Compound 9, 4-Methoxy-N-(pyridin-4-ylmethyl)-N-(3-((tetrahydro-2H-pyran-4-yl)methoxy)benzyl)benzamide] | – | – | – | 17.7 | 25.8 | greater impact on proliferation in KMS11-GFP cells
4 | COc1ccc(C(=O)N(Cc2ccncc2)Cc2cccc(OCC3CCCCC3)c2)cc1 [Compound 12, N-(3-(cyclohexylmethoxy)benzyl)-4-methoxy-N-(pyridin-4-ylmethyl)benzamide] | – | – | – | 19.7 | 16 | –
5 | COc1ccc(C(=O)N(Cc2ccncc2)Cc2cccc(OCc3ccc(C(F)(F)F)cc3)c2)cc1 [Compound 15] | – | – | – | 14.3 | 16.8 | –
6 | COc1ccc(C(=O)N(Cc2ccncc2)Cc2cccc(OCc3cccc(OC)c3)c2)cc1 [Compound 17, 4-Methoxy-N-(3-((3-methoxybenzyl)oxy)benzyl)-N-(pyridin-4-ylmethyl)benzamide] | > 100 | 10.8 | > 100 | 16.9 | 28.5 | greater impact on proliferation in KMS11-GFP cells

Second part, led by results:

Row | IC50 (GLUT8) [µM] | IC50 (GLUT4) [µM] | IC50 (GLUT1) [µM] | EC50 (KMS11-GFP cells) [µM] | EC50 (KMS11-GLUT1 cells) [µM] | Compound | impact on proliferation in KMS11-GFP cells compared with KMS11-GLUT1 cells (KMS11-GFP cells)
7 | > 100 | 18.9 | > 100 | – | – | Oc1cccc(CNCc2ccncc2)c1 [Compound 3, reference compound] | –
8 | – | – | – | 16.9 | 21 | COc1ccc(C(=O)N(Cc2ccncc2)Cc2cccc(OCCc3ccccc3)c2)cc1 [Compound 10, 4-Methoxy-N-(3-phenethoxybenzyl)-N-(pyridin-4-ylmethyl)benzamide] | –
9 | – | – | – | 5.1 | 4.9 | COc1ccc(C(=O)N(Cc2ccncc2)Cc2cccc(OCC3CCN(C(=O)OC(C)(C)C)CC3)c2)cc1 [Compound 11, Tert-butyl 4-((3-((4-methoxy-N-(pyridin-4-ylmethyl)benzamido)methyl)phenoxy)methyl)piperidine-1-carboxylate] | –
10 | – | – | – | 8.4 | 6.5 | COc1ccc(C(=O)N(Cc2ccncc2)Cc2cccc(OCCc3ccc(Br)cc3)c2)cc1 [Compound 13, N-(3-(4-bromophenethoxy)benzyl)-4-methoxy-N-(pyridin-4-ylmethyl)benzamide] | –
11 | – | – | – | 15.4 | 11.7 | COc1ccc(C(=O)N(Cc2ccncc2)Cc2cccc(OCc3ccc([N+](=O)[O-])cc3)c2)cc1 [Compound 14, 4-Methoxy-N-(3-((4-nitrobenzyl)oxy)benzyl)-N-(pyridin-4-ylmethyl)benzamide] | –
12 | – | – | – | 22.7 | 28.6 | COc1ccc(C(=O)N(Cc2ccncc2)Cc2cccc(OCc3ccc(F)cc3)c2)cc1 [Compound 16, N-(3-((4-fluorobenzyl)oxy)benzyl)-4-methoxy-N-(pyridin-4-ylmethyl)benzamide] | –
13 | – | – | – | 18.5 | 16.9 | COc1ccc(C(=O)N(Cc2ccncc2)Cc2cccc(OCC(=O)c3ccc(Cl)cc3)c2)cc1 [Compound 18, N-(3-(2-(4-chlorophenyl)-2-oxoethoxy)benzyl)-4-methoxy-N-(pyridin-4-ylmethyl)benzamide] | –
14 | – | – | – | 13.1 | 15.6 | O=C(c1ccc(Cl)cc1)N(Cc1ccncc1)Cc1cccc(OCCc2ccc(F)cc2)c1 [Compound 19, 4-Chloro-N-(3-(4-fluorophenethoxy)benzyl)-N-(pyridin-4-ylmethyl)benzamide] | –
15 | – | – | – | 18.7 | 21.4 | COc1ccc(C(=O)N(Cc2ccncc2)Cc2cccc(OCC(=O)c3cccc(Br)c3)c2)cc1 [Compound 21, N-(3-(2-(3-bromophenyl)-2-oxoethoxy)benzyl)-4-methoxy-N-(pyridin-4-ylmethyl)benzamide] | –
16 | – | – | – | 19.6 | 20.6 | COc1ccc(C(=O)N(Cc2ccncc2)Cc2cccc(OCc3cccc([N+](=O)[O-])c3)c2)cc1 [Compound 22, 4-Methoxy-N-(3-((3-nitrobenzyl)oxy)benzyl)-N-(pyridin-4-ylmethyl)benzamide] | –
